Experimental data from patent publication US20190119213A1, “OXO-PYRIDINE-DERIVATIVES AS FACTOR XIA INHIBITORS FOR THE TREATMENT OF THROMBOSIS” (BAYER PHARMA AKTIENGESELLSCHAFT, priority 2015, published 2019).

Columns and labels:
human factor XIa = molecular target: T1, human factor XIa (Homo sapiens, UniProt P03951); assay: Measurement of FXIa inhibition (fluorogenic peptide substrate); assay type: biochemical; settings: factor XIa from Kordia 0.45 nM; substrate Boc-Glu(OBzl)-Ala-Arg-AMC; 30 min at 22° C.
T1 construct: purchased Kordia
Protocol: (§1) The factor XIa inhibition of the inventive substances is determined using a biochemical test system which utilizes the reaction of a peptidic factor XIa substrate to determine the enzymatic activity of human factor XIa. Here, factor XIa cleaves from the peptic factor XIa substrate the C-terminal aminomethylcoumarin (AMC), the fluorescence of which is measured. The determinations are carried out in microtitre plates.
Test substances are dissolved in dimethyl sulphoxide and serially diluted in dimethyl sulphoxide (3000 μM to 0.0078 μM; resulting final concentrations in the test: 50 μM to 0.00013 μM). In each case 1 μl of the diluted substance solutions is placed into the wells of white microtitre plates from Greiner (384 wells). 20 μl of assay buffer (50 mM of Tris/HCl pH 7.4; 100 mM of sodium chloride; 5 mM of calcium chloride; 0.1% of bovine serum albumin) and 20 μl of factor XIa from Kordia (0.45 nM in assay buffer) are then added successively. After 15 min of incubation, the enzyme reaction is started by addition of 20 μl of the factor XIa substrate Boc-Glu(OBzl)-Ala-Arg-AMC dissolved in assay buffer (10 μM in assay buffer) from Bachem, the mixture is incubated at room temperature (22° C.) for 30 min and fluorescence is then measured (excitation: 360 nm, emission: 460 nm). The measured emissions of the test batches with test substance are compared to those of control batches without test substance (only dimethyl sulphoxide instead of test substance in dimethyl sulphoxide), and IC50 values are calculated from the concentration/activity relationships.

human plasma kallikrein = molecular target: T2, human plasma kallikrein (Homo sapiens, UniProt P03952); assay: Determination of the plasma kallikrein activity (fluorogenic peptide substrate); assay type: biochemical; settings: plasma kallikrein from Kordia 0.6 nM; substrate H-Pro-Phe-Arg-AMC; 30 min at 22° C.
T2 construct: purchased Kordia
Protocol: as §1, with “To determine the plasma kallikrein” for “The factor XIa”, “the” for “the inventive”, “according to the invention,” for “is determined using”, “system is used” for “system”, “plasma kallikrein” for “factor XIa”, “plasma kallikrein.” for “factor XIa.”
Test substances are dissolved in dimethyl sulphoxide and serially diluted in dimethyl sulphoxide (3000 μM to 0.0078 μM; resulting final concentrations in the test: 50 μM to […] each case 1 μl of the diluted substance solutions is placed into the wells of white microtitre plates from Greiner (384 wells). 20 μl of assay buffer (50 mM Tris/HCl pH 7.4; 100 mM sodium chloride solution; 5 mM of calcium chloride solution; 0.1% of bovine serum albumin) and 20 μl of plasma kallikrein from Kordia (0.6 nM in assay buffer) are then added successively. After 15 min of incubation, the enzyme reaction is started by addition of 20 μl of the substrate H-Pro-Phe-Arg-AMC dissolved in assay buffer (10 μM in assay buffer) from Bachem, the mixture is incubated at room temperature (22° C.) for 30 min and fluorescence is then measured (excitation: 360 nm, emission: 460 nm). The measured emissions of the test batches with test substance are compared to those of control batches without test substance (only dimethyl sulphoxide instead of test substance in dimethyl sulphoxide), and IC50 values are calculated from the concentration/activity relationships.

T2 sequence (P03952 391-638 limits assumed): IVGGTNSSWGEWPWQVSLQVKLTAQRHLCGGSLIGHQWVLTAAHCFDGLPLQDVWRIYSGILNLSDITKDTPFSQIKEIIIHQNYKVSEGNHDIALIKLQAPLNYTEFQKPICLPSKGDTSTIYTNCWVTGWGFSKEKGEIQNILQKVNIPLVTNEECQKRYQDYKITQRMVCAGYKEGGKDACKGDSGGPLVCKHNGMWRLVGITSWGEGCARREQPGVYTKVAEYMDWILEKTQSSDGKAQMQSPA
T2 sequence (P03952 20-390 partner limits assumed): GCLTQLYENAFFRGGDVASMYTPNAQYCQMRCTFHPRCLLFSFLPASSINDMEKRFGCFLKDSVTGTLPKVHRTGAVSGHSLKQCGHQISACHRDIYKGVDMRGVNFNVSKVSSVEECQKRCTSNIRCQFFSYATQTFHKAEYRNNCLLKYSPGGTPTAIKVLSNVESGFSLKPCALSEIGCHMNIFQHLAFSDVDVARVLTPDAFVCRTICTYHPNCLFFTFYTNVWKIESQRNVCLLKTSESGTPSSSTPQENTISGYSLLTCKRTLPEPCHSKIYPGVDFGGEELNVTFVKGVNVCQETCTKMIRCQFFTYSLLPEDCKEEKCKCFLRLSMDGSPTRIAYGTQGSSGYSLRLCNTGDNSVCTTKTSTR
T1 sequence (P03951 388-625 limits assumed): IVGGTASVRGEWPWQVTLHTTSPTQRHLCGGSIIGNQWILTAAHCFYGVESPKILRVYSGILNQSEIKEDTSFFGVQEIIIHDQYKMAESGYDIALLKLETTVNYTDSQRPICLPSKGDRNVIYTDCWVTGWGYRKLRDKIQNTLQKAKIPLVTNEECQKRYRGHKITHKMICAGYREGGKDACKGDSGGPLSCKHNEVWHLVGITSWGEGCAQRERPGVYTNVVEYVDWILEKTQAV
T1 sequence (P03951 19-387 partner limits assumed): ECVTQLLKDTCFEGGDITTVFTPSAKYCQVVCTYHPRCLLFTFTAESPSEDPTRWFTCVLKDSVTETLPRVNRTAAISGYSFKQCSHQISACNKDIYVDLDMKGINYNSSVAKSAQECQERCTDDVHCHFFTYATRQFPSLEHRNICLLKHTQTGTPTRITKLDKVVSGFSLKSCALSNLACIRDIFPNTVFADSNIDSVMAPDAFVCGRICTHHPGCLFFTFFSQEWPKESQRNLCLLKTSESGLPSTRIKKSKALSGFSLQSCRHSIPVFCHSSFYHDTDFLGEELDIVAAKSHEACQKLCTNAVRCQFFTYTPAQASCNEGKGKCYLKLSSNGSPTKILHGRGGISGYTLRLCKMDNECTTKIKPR

SMILES	IC50 (human factor XIa) [nM]	IC50 (human plasma kallikrein) [nM]
COc1cn(C(CCOC(C)C)C(=O)Nc2ccc(C(=O)O)cc2)c(=O)cc1-c1cc(Cl)ccc1C#N (racemic) [Example 1, 4-({2-[4-(5-Chloro-2-cyanophenyl)-5-methoxy-2-oxopyridin-1(2H)-yl]-4-isopropoxybutanoyl}-amino)benzoic acid (racemate)]	1.2	5.6
COc1cn([C@@H](CCOC(C)C)C(=O)Nc2ccc(C(=O)O)cc2)c(=O)cc1-c1cc(Cl)ccc1C#N (single isomer, unassigned; enantiomer 2) [Example 2]	0.9	4.8
COc1cn([C@@H](CCOC2(C)CCC2)C(=O)Nc2ccc(C(=O)O)cc2)c(=O)cc1-c1cc(Cl)ccc1C#N (single isomer, unassigned; enantiomer 2) [Example 10]	0.4	2.4
COc1cn(C(CCOC2(C)CCC2)C(=O)Nc2ccc(C(=O)O)cc2)c(=O)cc1-c1cc(Cl)ccc1OC(F)F (racemic) [Example 11, 4-[(2-{4-[5-Chloro-2-(difluoromethoxy)phenyl]-5-methoxy-2-oxopyridin-1(2H)-yl}-4-[(1-methylcyclobutyl)oxy]butanoyl)amino]benzoic acid (racemate)]	2.2	45
COc1cn([C@@H](CCOC2(C)CCC2)C(=O)Nc2ccc(C(=O)O)cc2)c(=O)cc1-c1cc(Cl)ccc1OC(F)F (single isomer, unassigned; enantiomer 2) [Example 12]	1.5	27
COc1cn(C(CCOC(C)(C)C)C(=O)Nc2ccc(C(=O)O)cc2)c(=O)cc1-c1cc(Cl)ccc1OC(F)F (racemic) [Example 7, 4-[(4-tert-Butoxy-2-{4-[5-chloro-2-(difluoromethoxy)phenyl]-5-methoxy-2-oxopyridin-1(2H)-yl}butanoyl)amino]benzoic acid (racemate)]	2.9	38
COc1cn([C@@H](CCOC(C)(C)C)C(=O)Nc2ccc(C(=O)O)cc2)c(=O)cc1-c1cc(Cl)ccc1OC(F)F (single isomer, unassigned; enantiomer 2) [Example 8]	1.5	29
COc1cn(C(CCOC2CCC2)C(=O)Nc2ccc(C(=O)O)cc2)c(=O)cc1-c1cc(Cl)ccc1C#N (racemic) [Example 3, 4-({2-[4-(5-Chloro-2-cyanophenyl)-5-methoxy-2-oxopyridin-1(2H)-yl]-4-(cyclobutyloxy)butanoyl}amino)benzoic acid (racemate)]	0.6	2.6
COc1cn([C@@H](CCOC(C)(C)C)C(=O)Nc2ccc(C(=O)O)cc2)c(=O)cc1-c1cc(Cl)ccc1C#N (single isomer, unassigned; enantiomer 2) [Example 6]	0.3	2.2
COc1cn(C(CCOC(C)(C)C)C(=O)Nc2ccc(C(=O)O)cc2)c(=O)cc1-c1cc(Cl)ccc1C#N (racemic) [Example 5, 4-({4-tert-Butoxy-2-[4-(5-chloro-2-cyanophenyl)-5-methoxy-2-oxopyridin-1(2H)-yl]butanoyl}amino)benzoic acid (racemate)]	0.7	3.9
COc1cn(C(CCOC2(C)CCC2)C(=O)Nc2ccc(C(=O)O)cc2)c(=O)cc1-c1cc(Cl)ccc1C#N (racemic) [Example 9, 4-({2-[4-(5-Chloro-2-cyanophenyl)-5-methoxy-2-oxopyridin-1(2H)-yl]-4-[(1-methylcyclobutyl)oxy]butanoyl}amino)benzoic acid (racemate)]	1	6.5
COc1cn([C@@H](CCOC2CCC2)C(=O)Nc2ccc(C(=O)O)cc2)c(=O)cc1-c1cc(Cl)ccc1C#N (single isomer, unassigned; enantiomer 2) [Example 4]	0.4	1.4
